Measurements as given in patent publication US20230285372A1, “Pharmaceutical use of (E)-3-arylheterocyclylprop-2-enoic acid derivatives” (MEDCURIUS INC., priority 2020, published 2023).
Where a name gives a salt, the structure may show the parent alone. Read-outs that look alike come from different tables or passages of the source.

Columns and labels:
[1] = test system: HO-1; assay: HO-1 expression in HT-22 cytoplasm, Western Blot; assay type: cell-based, mouse; conditions: HT-22 cells, 1.25 μM and 0.625 μM, 24 hours, vs control group
Source text: (§1) As a transcription factor, Nrf2 needs to enter the nucleus and combine with ARE sequence to play a role in transcriptional activation. Therefore, Nrf2 protein level in the nucleus is an important prerequisite for the activation of Nrf2 signaling pathway. NQO-1 and HO-1 are target genes regulated by Nrf2, and the increase of their protein levels is an important sign of activation of the Nrf2 signaling pathway.
(§2) HT-22 cells in logarithmic growth phase were selected, the culture medium was discarded, the cells were digested with 0.25% Trypsin containing EDTA, and cell suspension was made. Cell density was adjusted to 50000/ml with DMEM/F12 medium (containing 10% FBS and 1% double antibody) and it was inoculated to 6-well plate, with 2000 μL/well, the number of cells per well was 100, 000, and the cells were cultured in a cell incubator at 37° C. in an atmosphere containing 5% CO2 for 24 hours. Then, the medium of each well was replaced with new 1980 μL DMEM/F12 medium. […] After 24 hours, the cells were collected, nuclear protein and cytoplasmic protein were extracted, and the level of Nrf2 in the nucleus and the expression of NQO-1 and HO-1 in cytoplasm were detected by Western Blot.

[2] = test system: HT-22 cells; assay: Protective effect on HT-22 cell damage caused by L-glutamate monosodium salt; assay type: cell-based, mouse; conditions: Mus musculus, HT-22, 24 h, 15 mM L-glutamate, 24 hours
Method: (§3) Well-proliferated HT-22 cells, derived from mouse hippocampal neuronal cells in logarithmic growth phase, were selected, and they were counted after being subjected to trypsin digestion and dispersion. The cell density was adjusted with DMEM/F12 medium (containing 10% FBS and 1% double antibody). The cells were then inoculated in a 96-well plate at a density of 2,000 cells per well, and cultured in a cell incubator at 37° C. in atmosphere containing 5% CO2 for 24 hours. For the control group and the L-glutamate monosodium salt group (model group), serum-free DMEM/F12 medium was added, and the other wells were added with tested compounds of different concentrations; except that the serum-free DMEM/F12 medium was added to the control group. L-glutamate monosodium salt solution at the final concentration of 15 mM was added to the remaining wells. After 24 hours, the cell viability was detected with a luminescent cell viability assay kit.
as §3, with “group,” for “group.”
as §3, with “2.000” for “2,000”, “group,” for “group.”

[3] = test system: Nrf2; assay: Nrf2 protein level in the nucleus of HT-22 cells, Western Blot; assay type: cell-based, mouse; conditions: 1.25 μM and 0.625 μM, 24 hours, vs control group
Source text: as §1, §2

[4] = test system: NQO-1; assay: NQO-1 expression in HT-22 cytoplasm, Western Blot; assay type: cell-based, mouse; conditions: HT-22 cells, 1.25 μM and 0.625 μM, 24 hours, vs control group
Source text: as §1, §2

[5] = test system: MPTP-induced Parkinson's disease mouse; assay: Rotarod test, MPTP-induced Parkinson's disease mouse; assay type: in vivo; conditions: L-DOPA 10 mg/kg qd; vs model group, p<0.0001
Method: (§4) Male C57 mouse were screened for their motor function by a mouse rod-rotating test, and unqualified ones were excluded from the test. […] MPTP was injected subcutaneously every 4 days in the model group and the drug administration group with a dosage of 25 mg/kg for 40 consecutive days. Each group of I-5 was administered once a day at 8:00 am and 8:00 pm (by intragastric administration), twice in total. […] The intragastric volume was 0.1 ml/10 g body weight, and the behavior test was started 40 days later. […] The storage time of the prepared liquid medicine was not more than 24 hours.
On the first day, the mouse acclimated to a rotating speed of 5 rpm for two times, each time for 5 minutes. On the second day, the rotarod turned at a speed of 10 rpm, the mouse acclimated to the speed for two times, each time for 5 minutes. On the third day, the rotarod turned at a speed of 15 rpm, the mouse acclimated to the speed for two times, each time for 3 minutes. On the fourth day, a behavioral test was started. The rotarod turned at a speed of 15 rpm for a period of 3 minutes. The time mouse spent on the rotarod (fall latency) was taken as an index for evaluation of their motor coordination. The test was repeated three times for each animal, with an interval of 30 minutes to eliminate the interference of exercise fatigue on the motion ability of animals.

[6] = test system: MPTP-induced Parkinson's disease mouse; assay: Pole-climbing test, MPTP-induced Parkinson's disease mouse; assay type: in vivo; conditions: L-DOPA 10 mg/kg qd intragastric, 40 days; vs model group, p<0.0001
Method: as §4
A climbing pole in the pole-climbing test was a rough wooden pole with a diameter of 2 cm and a length of 50 cm. The bottom of the wooden pole was located in the mouse home cage and was vertically oriented. When the mouse was placed on top of the wooden pole, it would naturally descend to the bottom of the wooden pole and reach the base of the pole. […] The mouse should have a pre-acclimation period of 2 days prior to the test, training five times a day. To the test day, the time required for the […] to reach the bottom (incubation period) was taken as an evaluation index to observe the effect of the tested compound on the motion ability of the mouse.

[7] = test system: p-synuclein; assay: Phosphorylated α-synuclein (p-synuclein) level in midbrain, Western blot, MPTP mouse; assay type: in vivo; conditions: L-DOPA 10 mg/kg; p>0.05
Source text: (§5) The core pathological change of Parkinson's disease is the loss of dopaminergic neurons. Tyrosine hydroxylase (TH), the rate-limiting enzyme in dopamine synthesis, is the landmark protein of the dopaminergic neurons. Therefore, the decrease in its level indicates the loss of the dopaminergic neurons. A key protein for the occurrence and development of Parkinson's disease is α-synuclein protein, and the abnormal modification (hyperphosphorylation) of this protein can inhibit microtubule polymerization, enhance oxidative stress, and thus accelerate the death of the dopaminergic neurons.
as §4
Tissues from all the animals were collected on the second day after the end of the behavioral experiment. Hearts from six animals in each group were perfused and fixed with paraformaldehyde for pathological analysis of paraffin sections. Brain tissue of the remaining animals was separated on ice, and brain areas (midbrain) related to Parkinson's disease were collected. After being frozen with liquid nitrogen, they were stored in a refrigerator at −80° C. for protein analysis. The level of tyrosine hydroxylase (TH), a marker protein of dopaminergic neurons, was detected by immumohistochemistry, and α-synuclein protein level and phosphorylation level of the protein were detected by Western blot.

[8] = test system: α-synuclein protein; assay: α-synuclein protein level in midbrain, Western blot, MPTP mouse; assay type: in vivo; conditions: L-DOPA 10 mg/kg; p>0.05
Source text: as §5
Male C57 mouse were screened for their motor function by a mouse rod-rotating test, and unqualified ones were excluded from the test. […] MPTP was injected subcutaneously every 4 days in the model group and the drug administration group with a dosage of 25 mg/kg for 40 consecutive days. Each group of I-5 was administered once a day at 8:00 am and 8:00 pm (by intragastric administration), twice in total. […]
Tissues from all the animals were collected on the second day after the end of the behavioral experiment. […] The level of tyrosine hydroxylase (TH), a marker protein of dopaminergic neurons, was detected by immumohistochemistry, and α-synuclein protein level and phosphorylation level of the protein were detected by Western blot.

SMILES	protein level of HO-1 [1]	viability at 0.078 µM ([2]; Table 1, Conc 0.078 μm, L-Glu alone 27.73 (I-5 32.92), read-out: cell viability) [%]	viability at 0.156 µM ([2]; Table 1, Conc 0.156 μm, L-Glu alone 27.73 (I-5 32.92), read-out: cell viability) [%]	viability at 0.313 µM ([2]; Table 1, Conc 0.313 μm, L-Glu alone 27.73 (I-5 32.92), read-out: cell viability) [%]	viability at 0.625 µM ([2]; Table 1, Conc 0.625 μm, L-Glu alone 27.73 (I-5 32.92), read-out: cell viability) [%]	viability at 1.25 µM ([2]; Table 1, Conc 1.25 μm, L-Glu alone 27.73 (I-5 32.92), read-out: cell viability) [%]	viability at 2.5 µM ([2]; Table 1, Conc 2.5 μm, L-Glu alone 27.73 (I-5 32.92), read-out: cell viability) [%]	viability at 10 µM ([2]; Table 1, Conc 10 μm, L-Glu alone 27.73 (I-5 32.92), read-out: cell viability) [%]	viability at 0.078 µM ([2]; Table 2, Conc 0.078 μM, L-Glu alone 27.83, read-out: Visibility %) [%]	viability at 0.156 µM ([2]; Table 2, Conc 0.156 μM, L-Glu alone 27.83, read-out: Visibility %) [%]	protein level of Nrf2 in the nucleus [3]	protein level of NQO-1 [4]	fall latency in the Rotarod test [5]	latency of mouse reaching the base of the pole [6]	p-synuclein protein level in the midbrain [7]	α-synuclein protein level in the midbrain [8]
COC(=O)/C=C/C(=O)OC [DMF, dimethyl fumarate, reference compound]	no statistical difference	37.6	47.5	52.8	60	53.3	63.6	70.2	34.3	34.9	no statistical difference	no statistical difference	–	–	–	–
N[C@@H](Cc1ccc(O)c(O)c1)C(=O)O [L-DOPA, levodopa, reference compound]	–	–	–	–	–	–	–	–	–	–	–	–	significantly prolonged	significantly shorten the latency	no significant effect	no significant effect
